# Measured values published in patent US7045343B2, “Sterilization indicator test packs” (3M Innovative Properties Company, priority 1998, dated 2006).
# Experiments:
# [1] = tested on: enzyme associated with Bacillus stearothermophilus spores; experiment: Rapid enzyme fluorescence readout of dual rapid readout indicators after prevacuum steam sterilization; format: biochemical; settings: 4-pulse prevacuum steam 121° C.
# Method: (§1) The indicators prepared for the Examples were dual rapid readout indicators that provided both a rapid, enzyme-based efficacy test and a confirmatory spore outgrowth test. Spores coated on the carrier strip 16 served as the source of active enzyme whose activity was measured by the rapid enzyme test. These same spores were then incubated in the spore outgrowth portion of the test.
# (§2) Bacillus stearothermophilus, commercially available as ATCC 7953 from American Type Culture Collection, Rockville, Md., was grown overnight (16 hours) at 58° C. in tryptic soy broth. This culture was used to inoculate the surface of agar plates consisting of 8 g/l nutrient broth, 4 g/l yeast extract, 0.1 g/l manganese chloride and 20 g/l agar at pH 7.2. Plates were incubated at 58° C. for 72 hours. Spores were scraped from the plates and suspended in sterile distilled water. The spores were separated from the vegetative debris by centrifuging the suspension at 7000 rpm and 4° C. for 20 minutes. The supernatant was poured off and the spores were resuspended in sterile distilled water. The cleaning procedure was repeated several times. After the final wash, the spores were suspended in sterile distilled water, at a concentration of approximately 1×10^8 spores per milliliter.
# (§3) The spores were then treated with the chemicals identified in Tables 1–5. All chemicals tested were obtained from commercial sources. The spores were centrifuged at 6000 rpm for 10 minutes. The supernatant and coating chemical mixtures were heated at 60–80° C. for several minutes and vortexed to get the material into solution. The spores were then mixed into the sterilant-resistant chemical solution. The sterilant-resistant chemical solution was applied to 5×25 mm, 591 A paper strips (Schleicher & Schuell, Inc., Keene, N.H.) by pipetting 10–15 microliters to each strip for a final population of about 1×10^6 spores per strip. The strips were dried 16 hours at 37° C.
# (§4) The treated spore strips were placed on the bottom of the outer container 12 of the indicator 10 and a barrier was inserted between the spore strip 16 and the inner container 18, which contained enzyme substrate. A […] ( 11/16 inch) disc of polypropylene blown microfiber material, with a weight of 200 g/m^2, commercially available as “THINSULATE™ 200-B brand Thermal Insulation” from 3M Company, St. Paul, Minn., was used as the barrier. The inner container 18 contained 0.67 ml nutrient medium, consisting of 17 g of a bacteriological peptone and a 0.17 g/l of L-alanine, as well as 0.1 g 4-methylumbelliferyl-alpha-D-glucoside, commercially available from Sigma Chemical Company, St. Louis, Mo., dissolved in 200 microliters of N,N-dimethylformamide, and 0.03 g bromocresol purple pH indicator dye, per liter of water. The pH of the enzyme substrate and nutrient medium solution was adjusted to 7.6 with 0.1N sodium hydroxide.
# (§5) Sterilization indicators were made as described above with each of the chemicals and concentrations described in Table 1. Control indicators were made using untreated spores. The indicators were placed in metal instrument trays and exposed at 121° C. in a Getinge Steam Sterilizer (Getinge International, Inc., 1100 Towbin Ave., Lakewood, N.J.) using a 4-pulse prevacuum cycle at 121° C. with a vacuum level of 0.075–0.085 bar and a steam pulse to 1.00 bar for each pulse. Indicators were exposed in the sterilizer for between 7 and 13 minutes. This cycle is depicted in the time-pressure diagram in FIG. 5. After exposure the inner containers containing the enzyme substrate and nutrient medium were crushed and the indicators were incubated at 60° C. The indicators were examined for fluorescence using a 3M™ ATTEST™ Model 190 Rapid Autoreader, commercially available from 3M Company, St. Paul, Minn. Additionally, spore growth, as indicated by a color change from purple to yellow, was determined visually after 168 hours of incubation at 60° C. […]
# [2] = tested on: Bacillus stearothermophilus spores; experiment: Spore outgrowth (color change) of indicators after prevacuum steam sterilization; format: cell-based; settings: 4-pulse prevacuum steam 121° C.
# Method: as §1, §2, §3, §4, §5
# [3] = Example 4, 50 mg/ml coating, 7–18 min
# [4] = Example 4, 100 mg/ml coating, 7–18 min
# [5] = Example 5, 50 mg/ml coating, 7–13 min
# [6] = Example 5, 100 mg/ml coating, 7–13 min
# [7] = Example 1, 20 mg/ml coating, 7–13 min
# [8] = Example 1, 40 mg/ml coating, 7–13 min
Substance,accuracy of sterilization indicators compared to indicators made with untreated spores [1],"FLUORESCENCE - PERCENT POSITIVE 1 HR [1, 3]","FLUORESCENCE - PERCENT POSITIVE 2 HR [1, 3]","FLUORESCENCE - PERCENT POSITIVE 3 HR [1, 3]","FLUORESCENCE - PERCENT POSITIVE 4 HR [1, 3]","FLUORESCENCE - PERCENT POSITIVE 1 HR [1, 4]","FLUORESCENCE - PERCENT POSITIVE 2 HR [1, 4]","FLUORESCENCE - PERCENT POSITIVE 3 HR [1, 4]","FLUORESCENCE - PERCENT POSITIVE 4 HR [1, 4]","NO. GROWTH POSITIVE 168 HR [2, 3]","FLUORESCENCE - PERCENT POSITIVE 1 HR [1, 5]","FLUORESCENCE - PERCENT POSITIVE 2 HR [1, 5]","FLUORESCENCE - PERCENT POSITIVE 3 HR [1, 5]","FLUORESCENCE - PERCENT POSITIVE 4 HR [1, 5]","FLUORESCENCE - PERCENT POSITIVE 1 HR [1, 6]","FLUORESCENCE - PERCENT POSITIVE 2 HR [1, 6]","FLUORESCENCE - PERCENT POSITIVE 3 HR [1, 6]","FLUORESCENCE - PERCENT POSITIVE 4 HR [1, 6]","NO. GROWTH POSITIVE 168 HR [2, 5]","NO. GROWTH POSITIVE 168 HR [2, 6]",other results
Hexaglyceryl Monolaurate,improved,0%,28.6%,57.1%,71.4%,90.0%,100.0%,100.0%,100.0%,7,,,,,,,,,,,"NO. GROWTH POSITIVE 168 HR [2, 4]: 20"
Decaglyceryl Diisostearate,improved,,,,,,,,,,30%,80.0%,100%,100%,28.6%,100.0%,100%,100%,10,14,
Glycereth-7-diisononanoate,,,,,,,,,,,,,,,,,,,,,"FLUORESCENCE - PERCENT POSITIVE 1 HR [1, 7]: 0%; FLUORESCENCE - PERCENT POSITIVE 2 HR [1, 7]: 0%; FLUORESCENCE - PERCENT POSITIVE 3 HR [1, 7]: 66.7%; FLUORESCENCE - PERCENT POSITIVE 4 HR [1, 7]: 83.3%; FLUORESCENCE - PERCENT POSITIVE 5 HR [1, 7]: 83.3%; FLUORESCENCE - PERCENT POSITIVE 6 HR [1, 7]: 83.3%; FLUORESCENCE - PERCENT POSITIVE 1 HR [1, 8]: 0%; FLUORESCENCE - PERCENT POSITIVE 2 HR [1, 8]: 64.7%; FLUORESCENCE - PERCENT POSITIVE 3 HR [1, 8]: 88.2%; FLUORESCENCE - PERCENT POSITIVE 4 HR [1, 8]: 88.2%; FLUORESCENCE - PERCENT POSITIVE 5 HR [1, 8]: 94.1%; FLUORESCENCE - PERCENT POSITIVE 6 HR [1, 8]: 100.0%; NO. GROWTH POSITIVE 168 HR [2, 7]: 6; NO. GROWTH POSITIVE 168 HR [2, 8]: 17"
POE(60) Sorbitol Tetraoleate,,,,,,,,,,,0%,0%,0%,0%,0%,0%,0%,0%,2,2,
Decaglyceryl Monooleate,improved,0%,0%,0%,0%,7.7%,23.1%,50%,73.1%,10,0%,0%,0%,0%,0%,50%,100%,100%,6,2,"NO. GROWTH POSITIVE 168 HR [2, 4]: 26"
